In the supplement of paper PMC10307832:

Columns and labels:
Assay in all cases: relative viability (nuclei count vs DMSO), 5 days (fraction); higher = more cells survive
R406 + Pemetrexed = compound: COc1cc(Nc2ncc(F)c(Nc3ccc4c(n3)NC(=O)C(C)(C)O4)n2)cc(OC)c1OC [R406] + Nc1nc2[nH]cc(CCc3ccc(C(=O)N[C@@H](CCC(=O)O)C(=O)O)cc3)c2c(=O)[nH]1 [Pemetrexed] (partner 0.2 µM)
In short: (§1)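 Medians of duplicate plates are given as relative viability. That measure is the nuclei count in treated wells divided by the count in vehicle wells. Counts were taken on 4× images of lung cancer cell lines in 1536-well plates, 5 days after pin-tool dosing the day after seeding with one drug alone or a fixed anchor-drug dose plus five library-drug doses (not always all listed) in √10 steps.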

Daporinad + Vorinostat = compound: O=C(/C=C/c1cccnc1)NCCCCC1CCN(C(=O)c2ccccc2)CC1 [Daporinad] + O=C(CCCCCCC(=O)Nc1ccccc1)NO [Vorinostat] (partner 1 µM)
In short: as §1

R406 + Olaparib = compound: COc1cc(Nc2ncc(F)c(Nc3ccc4c(n3)NC(=O)C(C)(C)O4)n2)cc(OC)c1OC [R406] + O=C(c1cc(Cc2n[nH]c(=O)c3ccccc23)ccc1F)N1CCN(C(=O)C2CC2)CC1 [Olaparib] (partner 8 µM)
In short: as §1

Daporinad + Pictilisib = compound: O=C(/C=C/c1cccnc1)NCCCCC1CCN(C(=O)c2ccccc2)CC1 [Daporinad] + CS(=O)(=O)N1CCN(Cc2cc3nc(-c4cccc5[nH]ncc45)nc(N4CCOCC4)c3s2)CC1 [Pictilisib] (partner 1 µM)
In short: as §1

Row | Cell Line | relative viability (R406 + Pemetrexed; first compound 0.08 µM) | relative viability (R406 + Pemetrexed; first compound 0.253 µM) | relative viability (R406 + Pemetrexed; first compound 0.8 µM) | relative viability (R406 + Pemetrexed; first compound 2.53 µM) | relative viability (R406 + Pemetrexed; first compound 8 µM) | relative viability (Daporinad + Vorinostat; first compound 0.0005 µM) | relative viability (Daporinad + Vorinostat; first compound 0.001581 µM) | relative viability (Daporinad + Vorinostat; first compound 0.005 µM) | relative viability (Daporinad + Vorinostat; first compound 0.01581 µM) | relative viability (R406 + Olaparib; first compound 0.08 µM) | relative viability (R406 + Olaparib; first compound 0.253 µM) | relative viability (R406 + Olaparib; first compound 0.8 µM) | relative viability (R406 + Olaparib; first compound 2.53 µM) | relative viability (R406 + Olaparib; first compound 8 µM) | relative viability (Daporinad + Pictilisib; first compound 0.0005 µM) | relative viability (Daporinad + Pictilisib; first compound 0.001581 µM) | relative viability (Daporinad + Pictilisib; first compound 0.005 µM) | relative viability (Daporinad + Pictilisib; first compound 0.01581 µM)
1 | NCI-H2347 | 0.402 | 0.398 | 0.433 | 0.395 | 0.387 | 0.586 | 0.754 | 0.601 | 0.616 | 0.556 | 0.583 | 0.604 | 0.531 | 0.47 | 0.636 | 0.788 | 0.711 | 0.685
2 | NCI-H2405 | 1.14 | 1.22 | 1.08 | 0.495 | 0.224 | 0.851 | 1.06 | 0.874 | 0.31 | 0.857 | 0.879 | 0.879 | 0.748 | 0.306 | 0.505 | 0.485 | 0.5 | 0.377
3 | NCI-H3122 | 0.198 | 0.202 | 0.189 | 0.194 | 0.17 | 0.938 | 1.14 | 1.03 | 0.898 | 0.637 | 0.739 | 0.69 | 0.566 | 0.625 | 0.446 | 0.617 | 0.677 | 0.692
4 | PC-3 [JPC-3] | 1.08 | 1.25 | 1.25 | 0.882 | 0.455 | 0.604 | 0.818 | 1.06 | 0.921 | 1.15 | 1.3 | 1.13 | 0.838 | 0.452 | 0.703 | 0.987 | 0.824 | 0.659
5 | PC-14 | 0.139 | 0.131 | 0.135 | 0.101 | 0.042 | 0.519 | 0.863 | 0.898 | 0.472 | 0.271 | 0.257 | 0.225 | 0.291 | 0.0748 | 0.656 | 0.726 | 0.876 | 0.735
6 | RERF-LC-KJ | 0.457 | 0.487 | 0.473 | 0.458 | 0.381 | 0.659 | 0.795 | 0.814 | 0.701 | 1.05 | 0.947 | 0.908 | 0.756 | 0.585 | 0.58 | 0.529 | 0.525 | 0.695
7 | SK-LU-1 | 0.952 | 1.06 | 1.1 | 0.528 | 0.187 | 0.851 | 0.85 | 0.919 | 0.788 | 0.441 | 0.44 | 0.464 | 0.249 | 0.213 | 0.482 | 0.601 | 0.637 | 0.595
8 | SK-MES-1 | 0.948 | 0.942 | 1.01 | 0.538 | 0.213 | 1 | 1.2 | 1.26 | 1.01 | 0.613 | 0.677 | 0.715 | 0.327 | 0.174 | 0.296 | 0.4 | 0.345 | 0.306
9 | SW 1573 | 0.815 | 0.898 | 0.903 | 0.601 | 0.324 | 0.715 | 1.12 | 0.535 | 0.305 | 0.492 | 0.57 | 0.607 | 0.399 | 0.158 | 0.524 | 0.552 | 0.524 | 0.36
